Experimental findings from ChEMBL document CHEMBL2074120, “Hepatic uptake of bilirubin and its conjugates by the human organic anion transporter SLC21A6” (J Biol Chem, 2001) are described below.

Broadly, the Km is the substrate concentration at which the rate is half of its maximum.

Assay type in all cases: functional, cell-based
The target of series [1] is T1, Solute carrier organic anion transporter family member 1B3 (Homo sapiens, UniProt Q9NPD5).
T1 sequence (Q9NPD5 whole entry): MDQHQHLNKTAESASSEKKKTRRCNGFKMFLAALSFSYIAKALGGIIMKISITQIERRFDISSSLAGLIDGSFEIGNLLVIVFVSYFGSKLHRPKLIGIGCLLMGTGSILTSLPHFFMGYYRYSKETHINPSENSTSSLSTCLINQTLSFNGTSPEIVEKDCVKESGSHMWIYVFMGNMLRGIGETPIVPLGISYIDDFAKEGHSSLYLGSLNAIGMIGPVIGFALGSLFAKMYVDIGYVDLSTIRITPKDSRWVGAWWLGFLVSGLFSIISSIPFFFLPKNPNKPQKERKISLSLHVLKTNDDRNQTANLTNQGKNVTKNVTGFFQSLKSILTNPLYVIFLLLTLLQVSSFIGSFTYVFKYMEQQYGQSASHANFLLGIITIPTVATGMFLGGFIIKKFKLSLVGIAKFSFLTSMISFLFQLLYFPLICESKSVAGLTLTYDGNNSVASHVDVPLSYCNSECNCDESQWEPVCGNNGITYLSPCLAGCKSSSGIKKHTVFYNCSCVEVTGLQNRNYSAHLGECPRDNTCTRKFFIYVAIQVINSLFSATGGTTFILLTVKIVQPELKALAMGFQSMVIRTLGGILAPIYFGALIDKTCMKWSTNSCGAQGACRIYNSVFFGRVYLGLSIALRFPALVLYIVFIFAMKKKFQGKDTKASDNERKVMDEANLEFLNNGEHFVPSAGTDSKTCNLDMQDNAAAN
Kind of series: (§1) TP_TRANSPORTER: uptake in OATP8-expressing HEK293 cells. The following applies: hek293.

For another series, the target named is T2, OATP8 (OATP1B3, SLCO1B3) (Homo sapiens, UniProt Q9NPD5).
T2 sequence (Q9NPD5 whole entry): T1 sequence (Q9NPD5 whole entry)
The description is as §1. As to conditions: HEK293 cells expressing OATP8.

The target in series [2] is T3, Solute carrier organic anion transporter family member 1B1 (Homo sapiens, UniProt Q9Y6L6).
T3 sequence (Q9Y6L6 whole entry): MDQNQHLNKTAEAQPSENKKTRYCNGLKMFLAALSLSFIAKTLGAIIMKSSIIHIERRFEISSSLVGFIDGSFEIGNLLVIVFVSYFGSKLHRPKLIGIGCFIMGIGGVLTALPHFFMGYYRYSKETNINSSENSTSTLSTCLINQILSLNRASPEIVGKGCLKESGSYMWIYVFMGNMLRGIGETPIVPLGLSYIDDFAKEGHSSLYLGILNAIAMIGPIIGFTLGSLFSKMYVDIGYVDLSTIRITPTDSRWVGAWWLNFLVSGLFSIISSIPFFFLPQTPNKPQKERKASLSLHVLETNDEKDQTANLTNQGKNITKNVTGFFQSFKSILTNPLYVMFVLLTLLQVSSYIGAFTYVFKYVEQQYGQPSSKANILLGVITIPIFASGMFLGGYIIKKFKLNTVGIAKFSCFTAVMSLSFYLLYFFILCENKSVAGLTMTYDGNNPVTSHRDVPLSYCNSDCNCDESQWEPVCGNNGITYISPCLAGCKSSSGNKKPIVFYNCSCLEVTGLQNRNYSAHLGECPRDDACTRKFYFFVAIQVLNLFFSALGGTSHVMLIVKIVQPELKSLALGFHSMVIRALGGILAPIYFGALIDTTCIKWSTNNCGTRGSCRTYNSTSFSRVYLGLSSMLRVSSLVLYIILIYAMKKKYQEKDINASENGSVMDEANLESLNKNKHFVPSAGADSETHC
Kind of series: (§2) TP_TRANSPORTER: uptake in OATP-C-expressing HEK293 cells.

Series [3] addresses T1, Solute carrier organic anion transporter family member 1B3. In words: TP_TRANSPORTER: inhibition of E217betaG uptake (E217betaG: 2 uM, ICG: 10 uM) in OATP8-expressing HEK293 cells. As to conditions: hek293, 10 µM.
Series [4] addresses T3, Solute carrier organic anion transporter family member 1B1. In words: TP_TRANSPORTER: inhibition of E217betaG uptake (E217betaG: 2 uM, ICG: 10 uM) in OATP-C-expressing HEK293 cells. As to conditions: hek293, 10 µM.
Series [5] addresses T1, Solute carrier organic anion transporter family member 1B3. In words: TP_TRANSPORTER: inhibition of E217betaG uptake (E217betaG: 2 uM, Rifampicin: 75 uM) in OATP8-expressing HEK293 cells. As to conditions: hek293, 75 µM.
The target in series [6] is T3, Solute carrier organic anion transporter family member 1B1. Kind of series: TP_TRANSPORTER: inhibition of E217betaG uptake (E217betaG: 2 uM, Rifampicin: 75 uM) in OATP-C-expressing HEK293 cells. The following applies: hek293, 75 µM.
Series [7] has as its target T1, Solute carrier organic anion transporter family member 1B3. In words: TP_TRANSPORTER: inhibition of E217betaG uptake (E217betaG: 2 uM, Rifamycin SV: 50 uM) in OATP8-expressing HEK293 cells. As to conditions: hek293, 50 µM.
Series [8] has as its target T3, Solute carrier organic anion transporter family member 1B1. Kind of series: TP_TRANSPORTER: inhibition of E217betaG uptake (E217betaG: 2 uM, Rifamycin SV: 50 uM) in OATP-C-expressing HEK293 cells. The following applies: hek293, 50 µM.
Series [9] shares this target. In words: TP_TRANSPORTER: inhibition of Bilirubin uptake (Bilirubin: 10 uM, BSP: 5 uM) in OATP-C-expressing HEK293 cells. As to conditions: hek293, 5 µM.
Substrate in series [10]: C=CC1=C(C)/C(=C/c2[nH]c(Cc3[nH]c(/C=C4\NC(=O)C(C)=C4C=C)c(C)c3CCC(=O)O[C@@H]3OC(C(=O)O)[C@@H](O)C(O)C3O)c(CCC(=O)O)c2C)NC1=O
Described as §2.

Substrate in series [11]: C=CC1=C(C)/C(=C/c2[nH]c(Cc3[nH]c(/C=C4\NC(=O)C(C)=C4C=C)c(C)c3CCC(=O)O[C@@H]3O[C@@H](C(=O)O)[C@H](O)[C@@H](O)[C@@H]3O)c(CCC(=O)O[C@@H]3O[C@H](C(=O)O)[C@H](O)[C@H](O)[C@@H]3O)c2C)NC1=O
The series is described as §2.

Substrate in series [12]: C[C@]12CC[C@@H]3c4ccc(OS(=O)(=O)O)cc4CC[C@H]3[C@@H]1CCC2=O
The description is as §2.

Substrate in series [13]: O=C1OC(c2ccc(O)c(S(=O)(=O)O)c2)(c2ccc(O)c(S(=O)(=O)O)c2)c2c(Br)c(Br)c(Br)c(Br)c21
The series is described as §2.

Substrate in series [14]: [H][C@@]12CC=C3C[C@@H](OS(=O)(=O)O)CC[C@]3(C)[C@@]1([H])CC[C@]1(C)C(=O)CC[C@@]21[H]
The series is described as §2.

On to `C=CC1=C(C)/C(=C/c2[nH]c(Cc3[nH]c(/C=C4\NC(=O)C(C)=C4C=C)c(C)c3CCC(=O)O[C@@H]3O[C@@H](C(=O)O)[C@H](O)[C@@H](O)[C@@H]3O)c(CCC(=O)O[C@@H]3O[C@H](C(=O)O)[C@H](O)[C@H](O)[C@@H]3O)c2C)NC1=O`, for which, in series [1], the Activity result is “is not a substrate [-]”.

Turning to `C=CC1=C(C)/C(=C/c2[nH]c(Cc3[nH]c(/C=C4\NC(=O)C(C)=C4C=C)c(C)c3CCC(=O)O[C@@H]3OC(C(=O)O)[C@@H](O)C(O)C3O)c(CCC(=O)O)c2C)NC1=O` (some centres not stated) [BILIRUBIN MONOGLUCURONIDE], the Km on OATP8 (OATP1B3, SLCO1B3) is 0.5 µM.

Take `C=CC1=C(C)/C(=C/c2[nH]c(Cc3[nH]c(/C=C4\NC(=O)C(C)=C4C=C)c(C)c3CCC(=O)O)c(CCC(=O)O)c2C)NC1=O` [BILIRUBIN]: the Activity result in series [2] is “substrate [+]”.

For the molecule `C[C@]12CC[C@@H]3c4ccc(OS(=O)(=O)O)cc4CC[C@H]3[C@@H]1CCC2=O` [ESTRONE SULFURIC ACID], the Activity result in series [1] was “is not a substrate [-]”.

With `CC1(C)C(/C=C/C=C/C=C/C=C2/N(CCCCS(=O)(=O)[O-])c3ccc4ccccc4c3C2(C)C)=[N+](CCCCS(=O)(=O)[O-])c2ccc3ccccc3c21.[Na+]` [INDOCYANINE GREEN], the Activity result in [3] was “is not an inhibitor [-]”; in series [4], “inhibitor [(at a rough estimate) 5 % of control]”.

As to `C[C@]12CC[C@H](OS(=O)(=O)O)CC1=CC[C@@H]1[C@@H]2CC[C@]2(C)C(=O)CC[C@@H]12` [PRASTERONE SULFURIC ACID], the Km at OATP8 (OATP1B3, SLCO1B3) is greater than 30 µM.

With `CO[C@H]1/C=C/O[C@@]2(C)Oc3c(C)c(O)c4c(O)c(c(/C=N/N5CCN(C)CC5)c(O)c4c3C2=O)NC(=O)/C(C)=C\C=C\[C@H](C)[C@H](O)[C@@H](C)[C@@H](O)[C@@H](C)[C@H](OC(C)=O)[C@@H]1C` [RIFAMPIN], the Activity result was “inhibitor [(at a rough estimate) 10 % of control]” in series [5] and “inhibitor [(at a rough estimate) 20 % of control]” in [6].

For the molecule `CO[C@H]1/C=C/O[C@@]2(C)Oc3c(C)c(O)c4c(O)c(cc(O)c4c3C2=O)NC(=O)/C(C)=C\C=C\[C@H](C)[C@H](O)[C@@H](C)[C@@H](O)[C@@H](C)[C@H](OC(C)=O)[C@@H]1C` [RIFAMYCIN], the Activity result in series [7] was “inhibitor [(at a rough estimate) 35 % of control]”; in series [8], “inhibitor [(at a rough estimate) 20 % of control]”.

As for `O=C1OC(c2ccc(O)c(S(=O)(=O)[O-])c2)(c2ccc(O)c(S(=O)(=O)[O-])c2)c2c(Br)c(Br)c(Br)c(Br)c21.[Na+].[Na+]` [SULFOBROMOPHTHALEIN SODIUM], the Activity result in series [9] is “inhibitor [(at a rough estimate) 15 % of control]”.

B1: Solute carrier organic anion transporter family member 1B1 (Homo sapiens) (protein)
chain: T3 sequence (Q9Y6L6 whole entry)
Consider B1, for which the Michaelis constant (Km) in series [10] worked out at 0.1 µM; in series [11], 0.28 µM; in series [12] it was 12.5 µM; in [13], 0.14 µM; in series [14], 21.5 µM.
